Assay results as given in ChEMBL document CHEMBL4219122, “Synthesis and biological evaluation of histone deacetylase and DNA topoisomerase II-Targeted inhibitors” (Bioorg Med Chem, 2018).
Active and inactive are the calls of the source. No cut-off for these calls is given here.

Assays:
KM12 = test: Growth inhibition of human KM12 cells after 48 hrs by sulforhodamine B-based colorimetric assay; assay type: functional; conditions: KM12, 48 h
DU-145 = test: Growth inhibition of human DU145 cells after 48 hrs by sulforhodamine B-based colorimetric assay; assay type: functional, cell-based; conditions: DU-145, 48 h
St-4 = test: Growth inhibition of human St-4 cells after 48 hrs by sulforhodamine B-based colorimetric assay; assay type: functional; conditions: St-4, 48 h
ACHN = test: Growth inhibition of human ACHN cells after 48 hrs by sulforhodamine B-based colorimetric assay; assay type: functional
U-251 = test: Growth inhibition of human U251 cells after 48 hrs by sulforhodamine B-based colorimetric assay; assay type: functional; conditions: U-251, 48 h
Histone deacetylase 1 = Histone deacetylase 1 (Homo sapiens, UniProt Q13547); test: Inhibition of recombinant human HDAC1 expressed in HEK293T cells using Ac-KGLGK(Ac)-MCA as substrate after 30 mins in presence of DTT by fluorescence assay
OVCAR-5 = test: Growth inhibition of human OVCAR5 cells after 48 hrs by sulforhodamine B-based colorimetric assay; assay type: functional; conditions: OVCAR-5, 48 h
SK-OV-3 = test: Growth inhibition of human SKOV3 cells after 48 hrs by sulforhodamine B-based colorimetric assay; assay type: functional; conditions: SK-OV-3, 48 h
[1] = target: DNA topoisomerase 2-alpha (Homo sapiens, UniProt P11388); test: Inhibition of human topoisomerase-2 alpha-mediated kinetoplast DNA decatenation at 200 uM after 30 mins by ethidium bromide staining based agarose gel electrophoresis
DMS-114 = test: Growth inhibition of human DMS114 cells after 48 hrs by sulforhodamine B-based colorimetric assay; assay type: functional; conditions: DMS-114, 48 h
SF-268 = test: Growth inhibition of human SF268 cells after 48 hrs by sulforhodamine B-based colorimetric assay; assay type: functional; conditions: SF-268, 48 h
MKN-45 = test: Growth inhibition of human MKN45 cells after 48 hrs by sulforhodamine B-based colorimetric assay; assay type: functional; conditions: MKN-45, 48 h
A549 = test: Growth inhibition of human A549 cells after 48 hrs by sulforhodamine B-based colorimetric assay; assay type: functional; conditions: A549, 48 h
HCC 2998 = test: Growth inhibition of human HCC2998 cells after 48 hrs by sulforhodamine B-based colorimetric assay; assay type: functional; conditions: HCC 2998, 48 h
NCI-H522 = test: Growth inhibition of human NCI-H522 cells after 48 hrs by sulforhodamine B-based colorimetric assay; assay type: functional; conditions: NCI-H522, 48 h
[2] = Selectivity index, ratio of IC50 for human placenta topoisomerase 2alpha to IC50 for mouse HDAC6 expressed in HEK293T cells co-expressing mouse HDA2; assay type: cell-based

Chain of Histone deacetylase 1 (Q13547 whole entry): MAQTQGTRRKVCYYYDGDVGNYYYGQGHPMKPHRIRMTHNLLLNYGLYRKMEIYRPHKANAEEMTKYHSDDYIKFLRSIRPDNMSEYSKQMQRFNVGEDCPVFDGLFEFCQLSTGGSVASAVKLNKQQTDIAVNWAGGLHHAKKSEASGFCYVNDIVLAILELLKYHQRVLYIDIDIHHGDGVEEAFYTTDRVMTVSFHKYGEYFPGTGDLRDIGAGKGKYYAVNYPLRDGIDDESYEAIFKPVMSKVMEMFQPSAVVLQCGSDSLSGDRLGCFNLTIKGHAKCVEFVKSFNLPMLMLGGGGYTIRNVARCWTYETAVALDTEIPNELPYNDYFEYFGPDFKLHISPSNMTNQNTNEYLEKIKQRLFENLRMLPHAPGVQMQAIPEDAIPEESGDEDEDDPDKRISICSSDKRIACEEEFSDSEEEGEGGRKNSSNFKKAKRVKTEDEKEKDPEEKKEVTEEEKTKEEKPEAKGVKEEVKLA
Chain of DNA topoisomerase 2-alpha (P11388 whole entry): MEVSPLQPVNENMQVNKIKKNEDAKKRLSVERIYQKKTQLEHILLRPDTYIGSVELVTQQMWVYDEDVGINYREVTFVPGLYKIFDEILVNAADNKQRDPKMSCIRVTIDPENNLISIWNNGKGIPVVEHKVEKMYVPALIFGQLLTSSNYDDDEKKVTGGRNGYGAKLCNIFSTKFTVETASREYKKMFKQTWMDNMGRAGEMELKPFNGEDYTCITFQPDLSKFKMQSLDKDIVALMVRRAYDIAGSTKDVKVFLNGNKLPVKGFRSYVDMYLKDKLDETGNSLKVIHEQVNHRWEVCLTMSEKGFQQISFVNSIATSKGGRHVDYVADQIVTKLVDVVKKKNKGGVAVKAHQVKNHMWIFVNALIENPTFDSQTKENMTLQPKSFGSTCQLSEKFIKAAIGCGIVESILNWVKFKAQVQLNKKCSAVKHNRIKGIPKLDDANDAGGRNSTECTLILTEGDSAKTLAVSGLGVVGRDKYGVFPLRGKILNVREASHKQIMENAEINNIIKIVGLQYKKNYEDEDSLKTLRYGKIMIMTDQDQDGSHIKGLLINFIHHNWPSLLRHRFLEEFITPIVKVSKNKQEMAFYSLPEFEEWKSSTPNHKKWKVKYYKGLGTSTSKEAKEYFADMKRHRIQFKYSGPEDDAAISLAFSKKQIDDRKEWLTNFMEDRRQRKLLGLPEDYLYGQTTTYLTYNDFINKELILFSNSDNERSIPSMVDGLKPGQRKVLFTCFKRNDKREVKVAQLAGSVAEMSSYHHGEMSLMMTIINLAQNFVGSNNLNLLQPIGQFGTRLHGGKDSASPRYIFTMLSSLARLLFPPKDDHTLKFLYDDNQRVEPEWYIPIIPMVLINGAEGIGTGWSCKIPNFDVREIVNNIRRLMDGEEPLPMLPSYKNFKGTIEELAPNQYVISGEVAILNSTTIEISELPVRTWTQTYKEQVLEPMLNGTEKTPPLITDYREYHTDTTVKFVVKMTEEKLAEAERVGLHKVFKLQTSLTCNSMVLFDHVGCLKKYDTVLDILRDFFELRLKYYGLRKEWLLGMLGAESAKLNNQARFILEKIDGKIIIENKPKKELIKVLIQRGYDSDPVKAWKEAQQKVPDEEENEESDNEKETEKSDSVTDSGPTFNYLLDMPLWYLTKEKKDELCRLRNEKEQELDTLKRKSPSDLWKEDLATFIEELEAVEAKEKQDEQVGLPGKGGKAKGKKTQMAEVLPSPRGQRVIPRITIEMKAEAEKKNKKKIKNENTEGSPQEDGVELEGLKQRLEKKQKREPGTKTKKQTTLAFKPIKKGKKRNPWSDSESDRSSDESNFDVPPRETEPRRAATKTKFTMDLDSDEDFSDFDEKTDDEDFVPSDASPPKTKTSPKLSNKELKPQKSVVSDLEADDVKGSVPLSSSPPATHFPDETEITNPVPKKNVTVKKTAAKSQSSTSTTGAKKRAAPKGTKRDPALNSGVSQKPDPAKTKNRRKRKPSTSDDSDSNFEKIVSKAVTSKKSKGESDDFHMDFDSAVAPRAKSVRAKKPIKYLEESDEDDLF

Row | Compound | GI50 (KM12) [µM] | GI50 (DU-145; read-out: GI50) [µM] | GI50 (DU-145; read-out: pGI50 (converted)) [µM] | GI50 (St-4) [µM] | GI50 (ACHN) [µM] | GI50 (U-251) [µM] | IC50 (Histone deacetylase 1) [µM] | GI50 (OVCAR-5) [µM] | GI50 (SK-OV-3) [µM] | inhibition [1] | GI50 (DMS-114) [µM] | GI50 (SF-268) [µM] | GI50 (MKN-45) [µM] | GI50 (A549) [µM] | GI50 (HCC 2998) [µM] | GI50 (NCI-H522) [µM] | Ratio IC50 [2]
1 | Cc1cn([C@H]2C[C@H](C3(c4ccc(NC(=O)CCCCCCC(=O)NO)cc4)SCCCS3)[C@@H](CO[Si](C)(C)C(C)(C)C)O2)c(=O)[nH]c1=O | 4.57 | 3.98 | 3.98 | 4.07 | 4.37 | 3.98 | 0.73 | 4.9 | 4.07 | Active | 3.09 | 4.37 | 3.8 | 5.01 | 3.98 | 2.69 | 
2 | Cc1cn([C@@H]2C[C@H](C3(c4ccc(NC(=O)CCCCCCC(=O)NO)cc4)SCCCS3)[C@@H](CO[Si](C)(C)C(C)(C)C)O2)c(=O)[nH]c1=O | 6.76 | 3.98 | 3.98 | 8.71 | 9.33 | 5.13 | 1.1 | 6.61 | 12.9 | Active | 3.55 | 6.03 | 10 | 8.51 | 8.32 | 2.69 | 20
